Source: article PMC8536644, “Enigmatic mechanism of the N-vinylpyrrolidone hepatocarcinogenicity in the rat” (Archives of Toxicology, 2021)
Where “and” joins values, the source holds several entries; their conditions need not be identical. Equal entries are not always repeated.

How the values were obtained:
rat liver cells [1] = assay: Comet assay in presence of FPG, liver; conditions: liver, with FPG, 5 days; for TI (%), mean of medians from 2 slides: individual animals
Method: (§1) Animals were anesthetized by 3.5% isoflurane (approximately 3 min, evaporator Dräger Vapor 19.3) and then killed by cervical dislocation. The liver was removed and its left lateral lobe used for the Comet assay. The remainder of the liver was washed in saline and then in two aliquots shock frozen in liquid nitrogen and stored at − 80 °C for later examinations. Subsequently the lung was removed from the dead animal. Its left lobe was used for the Comet assay and the remainder treated as described above for the liver. Thereafter the femora were removed for the preparation of the bone marrow.
(§2) The Comet assay was performed under alkaline conditions according to the principles described by Singh et al. ([1988]) and Tice et al. ([2000]).
(§3) Liver and lung cells were obtained essentially as described by Hartmann et al. ([2004]) and by the Japanese Center for the Validation of Alternative Methods (JaCVAM [2009]). Single cells were obtained within 1 h after killing of the animals in order to minimize DNA damage during the preparation.
(§4) The organ parts (see above) were washed in mincing buffer (50 mM EDTA in HBSS [without Ca^2+ and Mg^2+] pH 7.5: DMSO 9:1 (v/v), the latter added shortly before use, stored at 4 °C), cut into 1 to 2-mm pieces in ice-cold mincing buffer and transferred to a cell sieve with 70-µm pores. The viability of the cell suspension was evaluated by the Trypan Blue Assay (Strober [2001]).
(§5) 100 µL of the obtained cell suspension was mixed at 37 °C with 900 µL Low Melting Agarose (LMA) (0.7% agarose in phosphate-buffered saline [PBS] [Biochrom, Berlin, Germany] without Ca^2+ and Mg^2+). 100 µL of this mixture was transferred to a slide, which had been coated with Normal Melting Agarose (NMA) (0.6% agarose in PBS without Ca^2+ and Mg^2+). The slides were protected with a cover slip and the agarose was hardened at approximately 4 °C. The cover slips were then removed and the slides put over night at 4 °C into lysis buffer (2.5 M NaCl, 125 mM NaOH, 127 mM EDTA, 10 mM Tris/NaOH, pH 10; 1% Triton X-100 and 10% DMSO (v/v), the latter two added before use) in order to lyse the cell membrane, nuclear membrane and remove the histone.
(§6) The then following procedures were performed in a shaded room to minimize UV-mediated DNA damage during the procedures.
Those slides which were destined to be treated with the DNA base excision repair enzyme FPG (Sigma Aldrich, Steinheim, Germany) were washed (3 times for 5 min) with FPG buffer (0.04 M HEPES, 0.5 mM EDTA, 0.1 M KCl, pH 8; add shortly before use bovine serum albumin [BSA] to a final concentration of 0.02%). Subsequently 50 µL FPG-enzyme-buffer (prepared shortly prior to use by 30-fold dilution of the following suspension in FPG buffer: 7 µL FPG-enzyme (14 U) and 70 µL glycerol in 623 µL FPG-Puffer, stored at − 80 °C) was pipetted on the slide which was covered with a cover slide and incubated for 30 min at 37 °C while being placed on a humid filter paper. After hardening of the agarose cover slips were removed.
(§7) Remaining lysis buffer or FPG buffer was removed by immersing/washing the slides in PBS (without Ca^2+ and Mg^2+).

rat lung cells = assay: Comet assay, conventional (no FPG), lung; conditions: for Hedgehogs/100 cells (mean ± SD) / TI (%) (mean ± SD) / TI (%), mean of medians from 2 slides: lung, no FPG, 5 days; for TI (%), mean of medians from 2 slides: individual animals
Method: as §1, §2, §3, §4, §5, §6, §7
(§8) The slides were then placed into the electrophoresis chamber, which was cooled and protected from light. Slides were covered with electrophoresis buffer (0.3 M NaOH, 1 mM EDTA, pH > 13) carefully avoiding air bubbles. The DNA was allowed to unwind (20 min). Thereafter the electrophoresis was started (25 V, 300 mA, […], 30 min). The slides were then washed (2 times 5 min) in neutralization buffer (0.4 M Tris/HCl, pH 7.5), dehydrated and fixed in 100% ethanol (1 min), dried at room temperature overnight and stored at room temperature protected from dust.
(§9) Quantitative evaluation of the Comet assays was performed by fluorescence microscopy after DNA staining with ethidium bromide.

rat liver cells [2] = assay: Comet assay, conventional (no FPG), liver
Method: as §1, §2, §3, §4, §5, §6, §7, §8, §9

[3] = liver, female, no FPG, 5 ppm inhalation, 5 days

C=CN1CCCC1=O [NVP, N-vinylpyrrolidone]
Hedgehogs/100 cells (mean ± SD) (rat liver cells [1]; female, 5 ppm inhalation): 4 ± 2 /100 cells | TI (%), mean of medians from 2 slides (rat liver cells [1]; female, 5 ppm inhalation): 6.5% and 8.4% and 9.0% and 9.3% and 5.6% and 7.1% | Hedgehogs/100 cells (mean ± SD) (rat liver cells [1]; female, 10 ppm inhalation): 3 ± 2 /100 cells | TI (%) (mean ± SD) (rat liver cells [1]; female, 10 ppm inhalation): 7.9 ± 2.74% | TI (%), mean of medians from 2 slides (rat liver cells [1]; female, 10 ppm inhalation): 5.5% and 10.7% and 5.6% and 5.3% and 9.4% and 11.0% | Hedgehogs/100 cells (mean ± SD) (rat liver cells [1]; female, 20 ppm inhalation): 4 ± 2 /100 cells | TI (%) (mean ± SD) (rat liver cells [1]; female, 20 ppm inhalation): 7.0 ± 1.97% | TI (%), mean of medians from 2 slides (rat liver cells [1]; female, 20 ppm inhalation): 9.2% and 5.2% and 8.3% and 6.3% and 8.6% and 4.4% | Hedgehogs/100 cells (mean ± SD) (rat liver cells [1]; male, 5 ppm inhalation): 1 ± 1 /100 cells | TI (%) (mean ± SD) (rat liver cells [1]; male, 5 ppm inhalation): 5.3 ± 1.09% | TI (%), mean of medians from 2 slides (rat liver cells [1]; male, 5 ppm inhalation): 4.3% and 5.8% and 5.2% and 4.0% and 7.0% and 5.7% | Hedgehogs/100 cells (mean ± SD) (rat liver cells [1]; male, 10 ppm inhalation): 2 ± 1 /100 cells | TI (%) (mean ± SD) (rat liver cells [1]; male, 10 ppm inhalation): 6.1 ± 1.67% | TI (%), mean of medians from 2 slides (rat liver cells [1]; male, 10 ppm inhalation): 8.3% and 7.5% and 3.7% and 4.9% and 6.5% and 5.8% | Hedgehogs/100 cells (mean ± SD) (rat liver cells [1]; male, 20 ppm inhalation): 2 ± 1 /100 cells | TI (%) (mean ± SD) (rat liver cells [1]; male, 20 ppm inhalation): 5.0 ± 1.09% | TI (%), mean of medians from 2 slides (rat liver cells [1]; male, 20 ppm inhalation): 6.8% and 4.4% and 5.0% and 4.7% and 3.6% and 5.6% | Hedgehogs (rat lung cells; NVP-treated lung cells, with or without FPG): 1–7% | Hedgehogs/100 cells (mean ± SD) (rat lung cells; female, 5 ppm inhalation): 2 ± 1 /100 cells | TI (%) (mean ± SD) (rat lung cells; female, 5 ppm inhalation): 1.2 ± 0.34% | TI (%), mean of medians from 2 slides (rat lung cells; female, 5 ppm inhalation): 0.7% and 1.2% and 1.5% and 1.6% and 1.3% | Hedgehogs/100 cells (mean ± SD) (rat lung cells; female, 10 ppm inhalation): 2 ± 2 /100 cells | TI (%), mean of medians from 2 slides (rat lung cells; female, 10 ppm inhalation): 0.4% and 0.9% and 0.5% and 0.6% | Hedgehogs/100 cells (mean ± SD) (rat lung cells; female, 20 ppm inhalation): 2 ± 3 /100 cells | TI (%) (mean ± SD) (rat lung cells; female, 20 ppm inhalation): 1.0 ± 0.32% | TI (%), mean of medians from 2 slides (rat lung cells; female, 20 ppm inhalation): 0.7% and 0.9% and 1.2% and 1.0% and 1.6% | Hedgehogs/100 cells (mean ± SD) (rat lung cells; male, 5 ppm inhalation): 4 ± 3 /100 cells | TI (%), mean of medians from 2 slides (rat lung cells; male, 5 ppm inhalation): 1.8% and 0.6% and 0.7% and 0.8% and 1.9% | Hedgehogs/100 cells (mean ± SD) (rat lung cells; male, 10 ppm inhalation): 7 ± 5 /100 cells | TI (%) (mean ± SD) (rat lung cells; male, 10 ppm inhalation): 1.8 ± 1.94% | TI (%), mean of medians from 2 slides (rat lung cells; male, 10 ppm inhalation): 5.7% and 1.3% and 1.2% and 0.7% and 1.0% and 1.1% | Hedgehogs/100 cells (mean ± SD) (rat lung cells; male, 20 ppm inhalation): 3 ± 1 /100 cells | TI (%) (mean ± SD) (rat lung cells; male, 20 ppm inhalation): 0.6 ± 0.28% | TI (%), mean of medians from 2 slides (rat lung cells; male, 20 ppm inhalation): 0.4% and 0.9% and 0.6% and 0.3% | Hedgehogs (rat liver cells [2]; NVP-treated liver cells, with or without FPG): 1–5% | Hedgehogs/100 cells (mean ± SD) (rat liver cells [2]; [3]): 3 ± 3 /100 cells | TI (%) (mean ± SD) (rat liver cells [2]; [3]): 1.0 ± 0.40% | TI (%), mean of medians from 2 slides (rat liver cells [2]; liver, female, no FPG, 5 ppm inhalation, 5 days, individual animals): 0.9% and 1.1% and 1.7% and 0.8% and 0.6%
